# Experimental data reported in patent publication US20250019370A1, “L-LYSINE SALT OF 4-CHLORO-5-[4-(2,6-DICHLOROPHENYL)SULFONYLPIPERAZIN-1-YL]-1-BENZOFURAN-2-CARBOXYLIC ACID AND VARIOUS FORMS THEREOF” (ENYO PHARMA, priority 2023, published 2025).
# What was measured:
# [1] = Solubility kinetics in FaSSIF medium; format: physicochemical
# Protocol: The solubility kinetics of the salt forms as well as the native EYP001 free acid form were determined in FaSSIF and FeSSIF media, and in a pH 4.5 acetate buffer as detailed below: The samples were prepared by adding an excess of each tested bulk (salt or native EYP001) to a given volume of test medium. The suspension was stirred by orbital stirring over 1 hour (in both pH 4.5 acetate buffer and FeSSIF medium) or 24 hours ([…] medium) at 37° C., protected from light. In FaSSIF medium, the soluble concentration was assessed after 24 hours of stirring. […] At each time point, the “supernatant” was isolated and diluted in a solvent mixture allowing its injection into the chromatographic system. The concentration in solution in the test medium was determined by HPLC with external standardization.
# [2] = Thermogravimetric analysis (TGA), mass losses upon heating; format: physicochemical; settings: listed as EYP001 L-lysine salt (sample A)
# Protocol: Thermogravimetric analysis was performed on a TA Instruments TGA Hi-Res 2950 apparatus equipped with an evolved gas analysis furnace. A sample was placed in an opened aluminium basket and analysed according to the following conditions: […]
# [3] = Dynamic Vapor Sorption (DVS) analysis (gas water sorption); format: physicochemical; settings: for water uptake (DVS): 25° C./60% RH; for hygroscopicity (DVS): hygroscopic above 2% mass gain at 25° C./60% RH
# Protocol: The dynamic vapor sorption (DVS) analysis (gas water sorption) was performed on a DVS-Intrinsic incubator (SMS Ltd), equipped with DVS-Intrinsic Control Software 1.0. The sample, placed in an aluminium basket holder, was submitted to a full-cycle analysis (sorption followed by desorption cycle) under the following conditions:
# The sample was first pre-dried under a stream of dry air until a stabilized sample mass was observed. Then, the relative humidity was increased by 5% increments. At each step, the sample mass was allowed to increase until equilibrium is reached (according to a given dm/dt target), and then a new relative humidity rise occurred. Relative humidity was ramped up to 95%. After equilibration at this point, desorption began in a similar stepwise manner, with sample mass decrease again allowed to stabilize after each incremental humidity decrease.
# With both segments of the above-described method, the sample mass recording allowed describing of the whole vapor water sorption/desorption behaviour versus relative humidity.
# [4] = Pharmacokinetic study Experiment #1, oral administration in rats; format: in vivo, rat; settings: 50 mg EqEYP001/Kg
# Protocol: (§1) In a first study (Experiment #1), EYP001, EYP001 Meglumine salt, and EYP001 L-lysine salt Form I in aqueous formulations (0.5% CMC, 0.25% Tween 80, water) were orally administrated at a dose of 50 mg EqEYP001/Kg in 3 male rats for each compound. Blood samples were taken at 0.25 h, 0.5 h, 1 h, 2 h, 4 h, 6 h, 8 h, 12 h, and 24 h after oral administration.
# [5] = Pharmacokinetic study Experiment #2, oral administration in rats; format: in vivo, rat; settings: 50 mg EqEYP001/Kg
# Protocol: as §1, with “second” for “first”, “#2),” for “#1), EYP001,”, “EYP001” for “EYP001 Meglumine salt,”, “8” for “3”
# [6] = Solubility kinetics in pH 4.5 acetate buffer; format: physicochemical; settings: for Soluble fraction: 37 ° C., listed as EYP001 L-Lysine salt (Form I)
# Protocol: The solubility kinetics of the salt forms as well as the native EYP001 free acid form were determined in FaSSIF and FeSSIF media, and in a pH 4.5 acetate buffer as detailed below:
# The samples were prepared by adding an excess of each tested bulk (salt or native EYP001) to a given volume of test medium. The suspension was stirred by orbital stirring over 1 hour (in both pH 4.5 acetate buffer and FeSSIF medium) or 24 hours (inFaSSIF medium) at 37° C., protected from light.
# In pH 4.5 acetate buffer, the soluble concentration was assessed after 0.5 hour and 1 hour of stirring.
# At each time point, the “supernatant” was isolated and diluted in a solvent mixture allowing its injection into the chromatographic system. The concentration in solution in the test medium was determined by HPLC with external standardization.
# [7] = listed as EYP001 L-lysine salt (Sample A)
# [8] = listed as EYP001 L-lysine salt (form I)
# [9] = male rats, versus EYP001 free acid
structure (smiles),measurement,setting,value
"NCCCC[C@H](N)C(=O)O.O=C(O)c1cc2c(Cl)c(N3CCN(S(=O)(=O)c4c(Cl)cccc4Cl)CC3)ccc2o1 [EYP001 L-lysine salt Form I, L-lysine salt of 4-chloro-5-[4-(2,6-dichlorophenyl)sulfonylpiperazin-1-yl]-1-benzofuran-2-carboxylic acid]","solubility compared to EYP001 free acid, Piperazine, Morpholine, Imidazole, Benethamine, Zinc and Cyclohexylamine salts",[1]; 37° C.,higher solubility
same,Soluble fraction,"[1]; 37° C., after 24 h",0.31 mg/mL of EYP001
same,pH,"[1]; pH given with the soluble fraction, after 24 h",6.6
same,onset temperature of thermal decomposition (TGA),"[2]; heater ramp 10 ° C./min, nitrogen",254 °C
same,mass loss before the beginning of thermal decomposition (TGA),[2]; upon heating,no mass loss
same,mass loss during preliminary drying phase,"[3]; 25° C./0% RH before sorption, listed as EYP001 L-lysine salt (Sample A)",no significant mass loss
same,water uptake (DVS),[3]; [7],0.4%
same,water uptake (DVS),[3]; [8],0.4%
same,water uptake upon sorption (DVS),"[3]; 25° C./95% RH, listed as EYP001 L-lysine salt (Sample A)",0.8%
same,final sample mass after full sorption-desorption cycle versus initial mass,[3]; back to 0% RH,roughly the same as the initial one
same,hygroscopicity (DVS),[3]; [7],non-hygroscopic
same,hygroscopicity (DVS),[3]; [8],non-hygroscopic
same,Mean AUC0-24,"[4]; male rats, aqueous formulation",60011 ng·h/mL
same,Mean Cmax,"[4]; male rats, aqueous formulation",8827 ng/mL
same,% increase/EYP001 (AUC0-24),[4]; [9],+15%
same,% increase/EYP001 (Cmax),[4]; [9],+26%
same,C max compared to EYP001 free acid and EYP001 Meglumine salt,[4]; rat,higher C max
same,exposure (AUC0-24) compared to EYP001 free acid and EYP001 Meglumine salt,[4]; rat,superior exposure
same,Mean AUC0-24,"[5]; male rats, aqueous formulation",42500 ng·h/mL
same,Mean Cmax,"[5]; male rats, aqueous formulation",7870 ng/mL
same,% increase/EYP001 (AUC0-24),[5]; [9],+47%
same,% increase/EYP001 (Cmax),[5]; [9],+41%
same,exposure and C max compared to EYP001 free acid,[5]; rat,superiority
same,"solubility compared to EYP001 free acid, Benethamine, Zinc, Benzathine and Ethylene diamine salts",[6]; 37° C.,much higher solubility
same,Soluble fraction,[6]; after 0.5 h,0.010 mg/mL of EYP001
same,Soluble fraction,[6]; after 1 h,0.006 mg/mL of EYP001
